Source: patent publication US10765114B2, “4-amino-6-(pyridyl and 2-substitutedphenyl)-picolinates and 6-amino-2-(pyridyl and 2-substitutedphenyl)-pyrimidine-4-carboxylates and their use as herbicides” (Dow AgroSciences LLC, priority 2013, dated 2020)

Tests used:
Assay in all cases: Post-Emergent Test III (Wheat and Barley)
SASKR (Russian thistle) = format: in vivo, Salsola tragus; settings: for Visual Growth Reduction (%) 21 Days After Application, SASKR: SASKR Russian thistle (Salsola iberica), post-emergent
Protocol: (§1) Seeds of the desired test plant species were planted in Sun Gro MetroMix® 306 planting mixture, which typically has a pH of 6.0 to 6.8 and an organic matter content of about 30 percent, in plastic pots with a surface area of 103.2 square centimeters (cm^2). When required to ensure good germination and healthy plants, a fungicide treatment and/or other chemical or physical treatment was applied. The plants were grown for 7-36 days in a greenhouse with an approximate 14 h photoperiod which was maintained at about 18° C. during the day and 17° C. during the night. Nutrients and water were added on a regular basis and supplemental lighting was provided with overhead metal halide 1000-Watt lamps as necessary. The plants were employed for testing when they reached the second or third true leaf stage.
(§2) A weighed amount, determined by the highest rate to be tested, of each test compound was placed in a 25 mL glass vial and was dissolved in 4 mL of a 97:3 v/v mixture of acetone and DMSO to obtain concentrated stock solutions. […] The concentrated stock solutions obtained were diluted with 20 mL of an aqueous mixture containing acetone, water, isopropyl alcohol, DMSO, Agri-Dex crop oil concentrate, and X-77 surfactant in a 48:39:10:1.5:1.5:0.02 v/v ratio to obtain spray solutions containing the highest application rates. Additional application rates were obtained by serial dilution of 12 mL of the high rate solution into a solution containing 2 mL of 97:3 v/v mixture of acetone and DMSO and 10 mL of an aqueous mixture containing acetone, water, isopropyl alcohol, DMSO, Agri-Dex crop oil concentrate, and X-77 surfactant in a 48:39:10:1.5:1.5:0.02 v/v ratio to obtain ½×, ¼×, ⅛× and 1/16× rates of the high rate. Compound requirements are based upon a 12 mL application volume at a rate of 187 liters per hectare (L/ha). Formulated compounds were applied to the plant material with an overhead Mandel track sprayer equipped with 8002E nozzles calibrated to deliver 187 L/ha over an application area of 0.503 square meters at a spray height of 18 inches (43 cm) above the average plant canopy height. Control plants were sprayed in the same manner with the solvent blank.
(§3) The treated plants and control plants were placed in a greenhouse as described above and watered by subirrigation to prevent wash-off of the test compounds. After 21 dAYS, the condition of the test plants as compared with that of the untreated plants was determined visually and scored on a scale of 0 to 100 percent where 0 corresponds to no injury and 100 corresponds to complete kill and presented as indicated in Table A.
(§4) By applying the well-accepted probit analysis as described by J. Berkson in Journal of the American Statistical Society, 48, 565 (1953) and by D. Finney in “Probit Analysis” Cambridge University Press (1952), herbicidal injury of a specific compound at various rates can be used to calculate GR10, GR20, GR50, GR80 and GR90 values, which are defined as growth reduction factors that correspond to the effective dose of herbicide required to provide plant growth reduction (GR) of 10 percent, 20 percent, 50 percent, 80 percent and 90 percent, respectively. Probit analysis was applied to data collected from multiple dose rates of individual compounds utilizing the procedures explained in the following examples. The analysis of those dose rates is captured in the following tables.

KCHSC (kochia) = format: in vivo, Kochia scoparia
How it was run: (§5)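 Plants grown in greenhouse (14 h photoperiod, ~18/17 °C day/night) to second or third true leaf stage were sprayed post-emergence at 187 L/ha in acetone/DMSO-based spray solution with crop oil and surfactant, top rate plus ½× to 1/16× dilutions. Visual injury (0–100%) versus untreated plants was scored after 21 days.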

[1] = test system: VERPE (Persian speedwell); format: in vivo, Veronica persica; settings: for Visual Growth Reduction (%) 21 Days After Application, VERPE: VERPE bird's-eye speedwell (Veronica persica), post-emergent
Protocol: as §1, §2, §3, §4

POLCO (wild buckwheat) = format: in vivo, Polygonum convolvulus; settings: for Visual Growth Reduction (%) 21 Days After Application, POLCO: POLCO wild buckwheat (Polygonum convolvulus), post-emergent
Protocol: as §1, §2, §3, §4

TRZSS = format: in vivo; settings: crop; for Visual Growth Reduction (%) 21 Days After Application, TRZSS: TRZSS wheat (Triticum aestivum), post-emergent
How it was run: as §5

HORSS = format: in vivo; settings: crop; for Visual Growth Reduction (%) 21 Days After Application, HORSS: HORSS barley (Hordeum vulgare), post-emergent
How it was run: as §5

PAPRH (common poppy) = format: in vivo, Papaver rhoeas; settings: for Visual Growth Reduction (%) 21 Days After Application, PAPRH: PAPRH common poppy (Papaver rhoeas), post-emergent
Protocol: as §1, §2, §3, §4

Cc1c(-c2cc(N)c(Cl)c(C(=O)O)n2)ccc(Cl)c1Cl [Compound 28]
Visual Growth Reduction (%) 21 Days After Application, SASKR (SASKR (Russian thistle); 17.5 g ai/ha): C (75-84)
Visual Growth Reduction (%) 21 Days After Application, SASKR (SASKR (Russian thistle); 35 g ai/ha): B (85-94)
Visual Growth Reduction (%) 21 Days After Application, SASKR (SASKR (Russian thistle); 70 g ai/ha): A (95-100)
GR50, SASKR (SASKR (Russian thistle); SASKR, growth reduction of 50%, probit analysis, 21 days): 2 g ai/ha
GR80, SASKR (SASKR (Russian thistle); SASKR, growth reduction of 80%, probit analysis, 21 days): 17 g ai/ha
GR90, SASKR (SASKR (Russian thistle); SASKR, growth reduction of 90%, probit analysis, 21 days): 47 g ai/ha
pest or weed control at 17.5 g/ha (KCHSC (kochia); Bassia scoparia, post-emergence, 504 h, KCHSC kochia (Kochia scoparia), 17.5 g ai/ha, post-emergent, read-out: Visual Growth Reduction (%) 21 Days After Application, KCHSC): 75 to 84%
pest or weed control at 35 g/ha (KCHSC (kochia); Bassia scoparia, post-emergence, 504 h, KCHSC kochia (Kochia scoparia), 35 g ai/ha, post-emergent, read-out: Visual Growth Reduction (%) 21 Days After Application, KCHSC): 75 to 84%
pest or weed control at 70 g/ha (KCHSC (kochia); Bassia scoparia, post-emergence, 504 h, KCHSC kochia (Kochia scoparia), 70 g ai/ha, post-emergent, read-out: Visual Growth Reduction (%) 21 Days After Application, KCHSC): 95 to 100%
GR50, KCHSC (KCHSC (kochia); KCHSC, growth reduction of 50%, probit analysis, 21 days): 3 g ai/ha
GR80, KCHSC (KCHSC (kochia); KCHSC, growth reduction of 80%, probit analysis, 21 days): 21 g ai/ha
GR90, KCHSC (KCHSC (kochia); KCHSC, growth reduction of 90%, probit analysis, 21 days): 54 g ai/ha
Visual Growth Reduction (%) 21 Days After Application, VERPE ([1]; 17.5 g ai/ha): G (0-29)
Visual Growth Reduction (%) 21 Days After Application, VERPE ([1]; 35 g ai/ha): F (30-44)
Visual Growth Reduction (%) 21 Days After Application, VERPE ([1]; 70 g ai/ha): E (45-59)
GR50, VERPE ([1]; VERPE, growth reduction of 50%, probit analysis, 21 days): 63 g ai/ha
GR80, VERPE ([1]; VERPE, growth reduction of 80%, probit analysis, 21 days): 111 g ai/ha
GR90, VERPE ([1]; VERPE, growth reduction of 90%, probit analysis, 21 days): >140 g ai/ha
Visual Growth Reduction (%) 21 Days After Application, POLCO (POLCO (wild buckwheat); 17.5 g ai/ha): A (95-100)
Visual Growth Reduction (%) 21 Days After Application, POLCO (POLCO (wild buckwheat); 35 g ai/ha): A (95-100)
Visual Growth Reduction (%) 21 Days After Application, POLCO (POLCO (wild buckwheat); 70 g ai/ha): A (95-100)
GR50, POLCO (POLCO (wild buckwheat); POLCO, growth reduction of 50%, probit analysis, 21 days): 1 g ai/ha
GR80, POLCO (POLCO (wild buckwheat); POLCO, growth reduction of 80%, probit analysis, 21 days): 1 g ai/ha
GR90, POLCO (POLCO (wild buckwheat); POLCO, growth reduction of 90%, probit analysis, 21 days): 4 g ai/ha
Visual Growth Reduction (%) 21 Days After Application, TRZSS (TRZSS; 17.5 g ai/ha): G (0-29)
Visual Growth Reduction (%) 21 Days After Application, TRZSS (TRZSS; 35 g ai/ha): F (30-44)
Visual Growth Reduction (%) 21 Days After Application, TRZSS (TRZSS; 70 g ai/ha): E (45-59)
GR10, TRZSS (TRZSS; TRZSS wheat, growth reduction of 10%, probit analysis, 21 days): 16 g ai/ha
GR20, TRZSS (TRZSS; TRZSS wheat, growth reduction of 20%, probit analysis, 21 days): 25 g ai/ha
Visual Growth Reduction (%) 21 Days After Application, HORSS (HORSS; 17.5 g ai/ha): G (0-29)
Visual Growth Reduction (%) 21 Days After Application, HORSS (HORSS; 35 g ai/ha): F (30-44)
Visual Growth Reduction (%) 21 Days After Application, HORSS (HORSS; 70 g ai/ha): F (30-44)
GR10, HORSS (HORSS; HORSS barley, growth reduction of 10%, probit analysis, 21 days): 3 g ai/ha
GR20, HORSS (HORSS; HORSS barley, growth reduction of 20%, probit analysis, 21 days): 13 g ai/ha
Visual Growth Reduction (%) 21 Days After Application, PAPRH (PAPRH (common poppy); 17.5 g ai/ha): G (0-29)
Visual Growth Reduction (%) 21 Days After Application, PAPRH (PAPRH (common poppy); 35 g ai/ha): G (0-29)
Visual Growth Reduction (%) 21 Days After Application, PAPRH (PAPRH (common poppy); 70 g ai/ha): G (0-29)
GR50, PAPRH (PAPRH (common poppy); PAPRH, growth reduction of 50%, probit analysis, 21 days): >140 g ai/ha
GR80, PAPRH (PAPRH (common poppy); PAPRH, growth reduction of 80%, probit analysis, 21 days): >140 g ai/ha
GR90, PAPRH (PAPRH (common poppy); PAPRH, growth reduction of 90%, probit analysis, 21 days): >140 g ai/ha
